Source: patent US20090221829A1 (priority 2005, published 2009)
Values after ≈ are worked out from the molar mass of the structure shown.

Legend:
various kinds of Candida = test: MIC (Minimal Inhibitory Concentration) data; type: cell-based; details: unit assumed
[1] = tested on: Candida albicans(KCTC 1940), Aspergillus niger (ATCC 9642) and Saccharomyces cerevisiae; test: Relative antifungal activity by agar dilution method (vs Miconazole); type: cell-based;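 also: scores 5 to 7 mean a lower fungicidal concentration than Miconazole so higher is more potent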
From the text: Novel compounds represented by the above chemical formula (I), and the relative activities in accordance with the agar dilution method in Sabouraud dextrose agar media, Czapek agar media and Yeast Extract-Peptone-Dextrose agar media for Candida albicans(KCTC 1940), Aspergillus niger (ATCC 9642) and Saccharomyces cerevisiae are described respectively in following Table 1.

[2] = agar dilution method, fungicidal concentration relative to control drug Miconazole (=4)
[3] = antifungal activity relative to Miconazole, agar dilution

SMILES | Relative Activity [1, 2] | other results
C[C@@H]1[C@H](O)[C@@H](C)/C=C/C=C/C=C/C=C/C=C/C=C/C=C/[C@H](O[C@@H]2O[C@H](C)[C@@H](O)[C@H](N)[C@@H]2O)C[C@@H]2O[C@](O)(C[C@@H](O)C[C@@H](O)[C@H](O)CC[C@@H](O)C[C@@H](O)CC(=O)O[C@H]1C)C[C@H](O)[C@H]2C(=O)O [Amphotericin B, reference compound] | – | MIC (various kinds of Candida; C. albicans ATCC 11651): 1.56 µg/mL (≈ 1.69 µM); MIC (various kinds of Candida; C. albicans ATCC 28838): 3.12 µg/mL (≈ 3.38 µM); MIC (various kinds of Candida; C. albicans IFO 1385): 1.56 µg/mL (≈ 1.69 µM); MIC (various kinds of Candida; C. albicans OY-003): 0.78 µg/mL (≈ 0.844 µM); MIC (various kinds of Candida; C. albicans OY-019): 0.4 µg/mL (≈ 0.433 µM); MIC (various kinds of Candida; C. albicans U.K): 3.12 µg/mL (≈ 3.38 µM); MIC (various kinds of Candida; C. albicnas ATCC 10231): 1.56 µg/mL (≈ 1.69 µM); MIC (various kinds of Candida; C. glabrata): 1.56 µg/mL (≈ 1.69 µM); MIC (various kinds of Candida; C. glulliermondi): 1.56 µg/mL (≈ 1.69 µM); MIC (various kinds of Candida; C. krusei (KCTC7273)): 0.78 µg/mL (≈ 0.844 µM); MIC (various kinds of Candida; C. parapsilosis): 3.12 µg/mL (≈ 3.38 µM)
CCCCCC1=[N+](Cc2ccccc2F)CCc2cc(OC)ccc21.[Cl-] [Compound No. 85, 1-n-pentyl-2-(2-fluorophenyl)methyl-3,4-dihydro-6-methoxyisoquinolinium chloride] | 5 | –
CCCCCCC1=[N+](Cc2ccccc2F)CCc2cc(OC)ccc21.[Cl-] [Compound No. 86, 1-n-hexyl-2-(2-fluorophenyl)methyl-3,4-dihydro-6-methoxyisoquinolinium chloride] | 5 | –
CCCCCCCC1=[N+](Cc2ccccc2F)CCc2cc(OC)ccc21.[Cl-] [Compound No. 87, 1-n-heptyl-2-(2-fluorophenyl)methyl-3,4-dihydro-6-methoxyisoquinolinium chloride] | 5 | –
CCCCCCCCCCCC1=[N+](Cc2ccccc2F)CCc2cc(OC)ccc21.[Cl-] [Compound No. 88, 1-n-undecyl-2-(2-fluorophenyl)methyl-3,4-dihydro-6-methoxyisoquinolinium chloride] | 2 | –
CCCCCCCCCCCCCCCC1=[N+](Cc2ccccc2F)CCc2cc(OC)ccc21.[Cl-] [Compound No. 89, 1-n-pentadecyl-2-(2-fluorophenyl)methyl-3,4-dihydro-6-methoxyisoquinolinium chloride] | 1 | –
COc1ccc2c(c1)CC[N+](Cc1ccccc1F)=C2c1ccccc1F.[Cl-] [Compound No. 90, 1-(2-fluorophenyl)-2-(2-fluorophenyl)methyl-3,4-dihydro-6-methoxyisoquinolinium chloride] | 6 | –
COc1ccc2c(c1)CC[N+](Cc1ccccc1F)=C2c1ccc(C(C)(C)C)cc1.[Cl-] [Compound No. 91, 1-(4-t-butylphenyl)-2-(2-fluorophenyl)methyl-3,4-dihydro-6-methoxyisoquinolinium chloride] | 6 | –
CC1=[N+](Cc2ccc(C(F)(F)F)cc2)CCc2cc3c(cc21)OCO3.[Cl-] [Compound No. 107, 1-methyl-2-(4-trifluoromethylphenyl)methyl-3,4-dihydro-6,7-methylenedioxyisoquinolinium chloride] | 6 | –
CCCCCCCC1=[N+](Cc2ccc(C(F)(F)F)cc2)CCc2cc3c(cc21)OCO3.[Cl-] [Compound No. 108, 1-n-heptyl-2-(4-trifluoromethylphenyl)methyl-3,4-dihydro-6,7-methylenedioxyisoquinolinium chloride] | 4 | –
CCCCCCCCCCCCCCCC1=[N+](Cc2ccc(C(F)(F)F)cc2)CCc2cc3c(cc21)OCO3.[Cl-] [Compound No. 109, 1-n-pentadecyl-2-(4-trifluoromethylphenyl)methyl-3,4-dihydro-6,7-methylenedioxyisoquinolinium chloride] | 1 | –
CC(C)(C)c1ccc(C2=[N+](Cc3ccc(C(F)(F)F)cc3)CCc3cc4c(cc32)OCO4)cc1.[Cl-] [Compound No. 110, 1-(4-t-butylphenyl)-2-(4-trifluoromethylphenyl)methyl-3,4-dihydro-6,7-methylenedioxyisoquinolinium chloride] | 6 | –
CCCCCCCC1=[N+](Cc2ccc(F)c(F)c2)CCc2cc3c(cc21)OCO3.[Cl-] [Compound No. 112, 1-n-heptyl-2-(3,4-difluorophenyl)methyl-3,4-dihydro-6,7-methylenedioxyisoquinolinium chloride] | 4 | –
CCCCCCCCCCCCCCCC1=[N+](Cc2ccc(F)c(F)c2)CCc2cc3c(cc21)OCO3.[Cl-] [Compound No. 113, 1-n-pentadecyl-2-(3,4-difluorophenyl)methyl-3,4-dihydro-6,7-methylenedioxyisoquinolinium chloride] | 1 | –
CC(C)(C)c1ccc(C2=[N+](Cc3ccc(F)c(F)c3)CCc3cc4c(cc32)OCO4)cc1.[Cl-] [Compound No. 114, 1-(4′-t-butylphenyl)-2-(3,4-difluorophenyl)methyl-3,4-dihydro-6,7-methylenedioxyisoquinolinium chloride] | 6 | –
CCCCCCCCCCCC1=[N+](c2ccc(C(C)(C)C)cc2)CCc2cc(CNC(=O)OCC)c(OC)cc21.[Br-] [Compound No. 116, ethyl 3,4-dihydro-7-methoxy-6-(4-t-butylphenyl)-1-undecylisoquinolinium-6-ylmethylcabamate bromide] | 2 | –
CCCCCCCCCCCC1=[N+](c2ccc(C(F)(F)F)cc2)CCc2cc(CNC(=O)OCC)ccc21.[Br-] [Compound No. 117, Ethyl 3,4-dihydro-1-undecylisoquinolinium-2-(4-trifluoromethylphenyl)-6-ylmethylcabamate bromide] | 4 | –
CCCCCCCCCCCC1=[N+](Cc2ccc(NC(=O)OCC)c(NC(=O)OCC)c2)CCc2cc(OC)c(OC)cc21.[Cl-] [Compound No. 122, 6,7-dimethoxy-2-(3,4-bis(ethoxy Carbonylamino)phenyl)methyl-3,4-dihydro-1-undecylisoquinolinium chloride] | 2 | –
CCCC1=[N+](Cc2ccc(C(C)(C)C)cc2)CCc2cc(OC)c(OC)cc21.[Cl-] [Compound No. 123, 1-propyl-2-(4-t-butylphenyl)methyl-3,4-dihydro-6,7-dimethoxyisoquinolinium chloride] | 6 | –
COc1cc2c(cc1OC)C(CCc1ccc(C(C)(C)C)cc1)=[N+](Cc1ccccc1F)CC2 [Compound No. 124, 1-(2-(4-t-butylphenyl))ethyl-2-(2-fluorophenyl)methyl-3,4-dihydro-6,7-dimethoxyisoquinolinium chloride] | 2 | –
COc1ccc(C[N+]2=C(CCc3ccc(C(C)(C)C)cc3)c3cc(OC)c(OC)cc3CC2)cc1OC [Compound No. 125, 1-(2-(4-t-butylphenyl))ethyl-2-(3,4-dimethoxyphenyl)methyl-3,4-dihydro-6,7-dimethoxyisoquinolinium chloride] | 2 | –
COc1cc2c(cc1OC)C(CCc1ccc(C(C)(C)C)cc1)=[N+](Cc1ccc(C(F)(F)F)cc1)CC2.[Cl-] [Compound No. 129, 1-(2-(4-t-butylphenyl))ethyl-2-(4-trifluoromethylphenyl)methyl-3,4-dihydro-6,7-dimethoxy isoquinolinium chloride] | 4 | –
COc1cc2c(cc1OC)C(CCc1ccc(C(C)(C)C)cc1)=[N+](Cc1c(F)c(F)c(F)c(F)c1F)CC2.[Cl-] [Compound No. 130, 1-(2-(4-t-butylphenyl))ethyl-2-(2,3,4,5,6-pentafluorophenyl)methyl-3,4-dihydro-6,7-dimethoxy isoquinolinium chloride] | 4 | –
COc1cc2c(cc1OC)C(CCc1ccc(C(C)(C)C)cc1)=[N+](Cc1c(F)c(F)c(C(F)(F)F)c(F)c1F)CC2.[Cl-] [Compound No. 131, 1-(2-(4-t-butylphenyl))ethyl-2-(2,3,5,6-tetrafluoro-4-trifluoromethylphenyl)methyl-3,4-dihydro-6,7-dimethoxy isoquinolinium chloride] | 4 | –
COc1cc2c(cc1OC)C(CCc1ccc(C(C)(C)C)cc1)=[N+](Cc1cccc(OC)c1OCc1c(F)cccc1Cl)CC2 [Compound No. 133, 1-(2-(4-t-butylphenyl))ethyl-2-(2-(2-chloro-6-fluorobenzyloxy)-3-methoxyphenyl)methyl-3,4-dihydro-6,7-dimethoxyisoquinolinium chloride] | 1 | –
COc1cc2c(cc1OC)C(CCc1ccc(C(C)(C)C)cc1)=[N+](Cc1cccc(OC)c1OCc1cccc(OC)c1OC)CC2.[Cl-] [Compound No. 136, 1-(2-(4-t-butylphenyl))ethyl-2-(2-(2,3-dimethoxybenzyloxy)-3-methoxyphenyl)methyl-3,4-dihydro-6,7-dimethoxy isoquinolinium chloride] | 4 | –
CCCCCCCCCCCC1=[N+](Cc2ccc(C(F)(F)F)cc2)CCc2cc(F)ccc21.[Cl-] [Compound No. 137, 1-undecyl-2-(4-trifluoromethylphenyl)methyl-3,4-dihydro-6-fluoro isoquinolinium chloride] | 1 | –
COc1cc2cc[n+](Cc3c(F)cccc3Cl)cc2cc1OC.[Cl-] [Compound No. 141, 2-(2-chloro-6-fluorophenyl)methyl-6,7-dimethoxyisoquinolinium chloride] | – | Relative Activity [1, 3]: 6
COc1cc2cc[n+](Cc3ccc(C(C)(C)C)cc3)cc2cc1OC.[Cl-] [Compound No. 142, 2-(4-t-butylphenyl)methyl-6,7-dimethoxy-isoquinolinium chloride] | – | Relative Activity [1, 3]: 6
CCCCCCCCCCCc1c2cc(OC)c(OC)cc2cc[n+]1Cc1ccc(C(C)(C)C)cc1.[Cl-] [Compound No. 146, 1-undecyl-2-(4-t-butylphenyl)methyl-6,7-dimethoxyisoquinolinium chloride] | – | Relative Activity [1, 3]: 2
